Laboratory results taken from patent US7173021B2, “Synthesis of temozolomide esters as potent anticancer pro-drugs for topical and transdermal applications in treatments of cancers” (Tianjin North Pharm Sci-Tech Co., Ltd., priority 2004, dated 2007).
In brackets after ≈: the same amount, converted by molar mass. Values belong to the molecule of their own block, whether it stands above or below them.

Tests used:
[1] = Solubility in 10% v/v propylene glycol; assay type: physicochemical; settings: ambient conditions, stirred 5 hours; for solubility at 5 h: 10% v/v propylene glycol aqueous solution, aqueous with cosolvent or surfactant or cyclodextrin, thermodynamic from solid, read-out: Solubility, Concentration
Procedure: The potential of temozolomide esters used as topical and transdermal prodrugs is first proven through studies of their solubility. That is a decreased trend of solubility in an aqueous solution with increase of the length of the ester hydrocarbon alkyl chain of the temozolomide esters. It is clear the solubility constantly decreases from the methyl ester to the octyl ester, while temozolomide itself is 3.0 mg/ml similar to that of the methyl ester. […] Similarly to the esters, the solubility of the temozolomide amide products in the aqueous solution is considerably lower than that of temozolomide.
The solubility of temozolomide and the temozolomide esters was determined in 10% v/v propylene glycol by stirring an excess of the solid products at room temperature for 5 hours. The mixtures were then filtered, diluted with sample solvent and analysed using HPLC.

[2] = In vitro permeation, Franz diffusion cell, silicone membrane; assay type: in vitro ADME; settings: 37° C., 8 h
Text: Jacketed Franz-type diffusion cells were used throughout the study and the barrier (12) (skin or silicone membrane) was mounted between the two chambers (14, 16) (2.8–3.4 cm^2 available surface area) with the dermal side in contact with the receiver solution (FIG. 2). The diffusion chambers (10) comprised a barrier of skin or silicone membrane (12) mounted between two chambers (14, 16). A cap (18) formed the donor compartment (14). The second receptor compartment (16) contained a receptor cell (20) with a stirring bar (22), sampling port (24) and cover (26). The stirring bar (22) was stirred by means of a magnet plate (28) having a rotating magnet. The receptor compartment comprised a water jacket (30) having a water inlet (32) and a water outlet (34).
Three types of materials were used in permeation studies. • 1. Silicone membrane (Silastic Medical Grade, 500-5, Dow Corning 0.005 in thick) was cut into circular sections (2 cm diameter) and washed with double distilled water prior to use. • 2. Full-thickness rat skin was obtained from Male Wistar rats aged 10 to 12 weeks and weighing 250 to 300 g, which were sacrificed by cervical dislocation, the abdomen shaved and the intact skin removed by dissection. Following removal of fat tissue, the skin was cut into circular pieces and used immediately. • 3. Samples of adult human epidermis were purchased from the Stephen Kirby Skin Bank (UK). The samples were from the leg, were stored at −18° C. and used within one week. Experiments
The membrane (as detailed above) was mounted on the diffusion cell (10), on which the surface area available for diffusion of each cell was about 2.8–3.4 cm^2. The cell cap (18) was placed on the membrane (12), and it was sealed with Parafilm® connecting the cell cap, membrane, and receptor cell. The capacity of each receptor cell was around 25–26 ml, which was filled with receptor solution and was completely in contact with the membrane sheet. During the course of experiment, the solution was continuously stirred by teflon-coated magnetic bar (22) placed in the cell (20). The temperature was maintained at 37° C. by a thermostatic water pump that circulated the water through the jacket (30) surrounding the cell body. The system was allowed to equilibrate under these conditions for half an hour. Finally, the prepared sample solution (2 ml) was added into the donor cap cell, and it was sealed with Parafilm® to minimize the evaporation of donor solution. 1 ml of receptor solution was removed every 30 minutes for 5 hours and then every 60 minutes for a further 3 hours. The volumes withdrawn were always replaced with equal volumes of fresh receptor solution to maintain constant volume. The concentration of each sample solution was determined by using HPLC.
For every sample, six determinations were performed on human and rat skin, and three determinations were carried out through artificial silicone membrane.
As stated above, after the removal of receptor solution, the receiver compartment was refilled with an identical volume of receptor fluid. This causes of the dilution of receptor solution leading to an under determination of the sample concentration. As a consequence, it was necessary to mathematically correct each successive sample concentrations, in the present invention, which was determined by applying the following equation:
[formula] where Ct is the actual current concentration of drug in the receptor phase at time t, Cmt is the apparent (i.e. measured) current concentration of drug in the receptor phase, Vs is the sample volume withdrawn for analysis, Vr is the volume of receptor solution, and ΣCm is the summed total of the previous measured concentrations.
Finally, the amount of drug penetrating the skin per unit area was calculated by dividing the obtained concentrations by the surface area available for diffusion cell and this value was different for each individual cell. […]

[3] = system: pig liver esterase; assay: Enzymatic metabolizing study with pig liver esterase (1H NMR); assay type: in vitro ADME; settings: 37° C., pH 7.4 buffer; ester complete at 10 minutes; amide followed up to 8 hours
Procedure: First the present invention establishes the metabolised process of the temozolomide esters by pig liver esterase in vitro. ^1H NMR spectra 1 (FIG. 1) records the degradation profile of the temozolomide methyl ester under incubation condition (Rathbone D L, 1999). […] Finally, at 10 minutes, the intensity of the singlet at 3.58 ppm grows to the grade similar to the original of the two singlets at 3.63 and 3.65 ppm, which while are completely eliminated. […] This discovery establishes the solid foundation for the temozolomide esters to be considered as the potential anticancer pro-drugs.
Enzymatic metabolizing studies of the temozolomide methyl ester was carried out using pig liver esterase enzyme from Sigma [a suspension in 3.2 M ammonium sulphate solution pH 8; 200 unit/mg protein (14 mg protein/ml)]. • A. To a NMR tube 2 mg of the temozolomide methyl ester was added, followed by 0.2 ml of d6-DMSO, 0.5 ml D2O of pH 7.4 sulphate buffer and finally 50 μl of the enzyme solution. Record a ^1H NMR spectrum immediately, then the mixture was incubated at 37° C. and record a ^1H NMR spectrum at each 5 minutes time interval. […] The samples were dissolved in d6-DMSO in an NMR tube, 50 μl of enzyme solution was added and the solution incubated at 37° C.

[4] = system: MV3 (human melanoma); assay: In vitro tumour cell growth inhibition (MTT), MV3; assay type: cell-based; settings: Homo sapiens, 96 h, Table 2 experiment (separate)
Procedure: (§1) Temozolomide (white powder), temozolomide acid (white powder) and temozolomide-8-carboxylate hexyl (white scale crystal) were made in house. For the estimation of in vitro tumour cell growth inhibition, MV3 (human melanoma), M14 (human melanoma), B16 and B16-BL6 (mouse melanoma), SHG-44, TJ899 and TJ905 (human glioma), MCF-7 (human breast), HCT-8 (human colon), A549 (human non small lung), Bel7402 (human hepatocellulor), and BGC-823 (human stomach) were used. All tumour cells were cultured in RPMI-1640 medium supplemented with 10% fetal bovine serum (FBS) at 37° C. in a humidified 5% CO2 incubator.
(§2) After being harvested from culture flasks, a cell suspension of 1×10^4/ml was made by using 1640 RPMI medium supplemented with 10% fetal bovine serum. 100 μl (contains 1000 tumour cells) of the cell suspension was seeded per well of 96-well flat-bottom Costar culture plates at 37° C. in a humidified 5% CO2 incubator for 24 hrs before introducing drugs. Each tested compounds was made for five different concentrations and 100 μl of the each concentration was introduced into parallel three wells; control wells were added with 100 μl of plain medium alone; fluorouracil (a chemotherapeutic antitumour drug) was used as the positive control. Cells were then incubated for 96 h. Proliferative response and cell death were determined using MTT (3-(4,5-dimethylthiazolyl)-2,5-diphenyl-tetrazolium bromide) assay.
(§3) MTT assay: Following incubation of cells with the tested compounds for 96 h, 100 μl of 0.4 mg/ml MTT in RPMI 1640 was added to each well and the plate was incubated at 37° C. for 4 h. The plate was then centrifuged and followed by removal of medium. 150 μl of DMSO was then added to dissolve formazan crystal. DMSO-added plates were placed on a plate shaker for 5 min and absorbance was measured spectrophotometrically at 540 nm (with reference wavelength at 450 nm) using a Benchmark microtiter plate reader (Bio-Rad 550, Bio-Rad Laboratories, CA, U.S.A.).
(§4) The IC50 was calculated from the curve of the tested compound concentrations against the inhibition rate of the tumour cells. Table 1 summarized the experiment results by using six human cancer cell lines, HCT-8 (colon carcinoma), A549 (non small lung carcinoma), MCF-7 (breast), Bel7402 (hepatocellulor carcinoma), BGC-823 (stomach adenocarcinoma), and MV3 (melanoma). Table 2 summarized the results from the experiment results by using two human melanoma cell lines, MV3 and M14, two mouse melanoma cell lines, B16 and B16-BL6, and three human glioma cell lines, TJ899, SHG-44 and TJ905.

[5] = system: M14 (human melanoma); assay: In vitro tumour cell growth inhibition (MTT), M14; assay type: cell-based; settings: Homo sapiens, Table 2 experiment, 96 h
Procedure: as §1, §2, §3, §4

[6] = system: B16 (mouse melanoma); assay: In vitro tumour cell growth inhibition (MTT), B16; assay type: cell-based; settings: Mus musculus, Table 2 experiment, 96 h
Procedure: as §1, §2, §3, §4

[7] = system: B16-BL6 (mouse melanoma); assay: In vitro tumour cell growth inhibition (MTT), B16-BL6; assay type: cell-based; settings: Mus musculus, B16-BL6, Table 2 experiment, 96 h
Procedure: as §1, §2, §3, §4

[8] = system: TJ899 (human glioma); assay: In vitro tumour cell growth inhibition (MTT), TJ899; assay type: cell-based; settings: Homo sapiens, Table 2 experiment, 96 h
Procedure: as §1, §2, §3, §4

[9] = system: SHG-44 (human glioma); assay: In vitro tumour cell growth inhibition (MTT), SHG-44; assay type: cell-based; settings: Homo sapiens, SHG-44, Table 2 experiment, 96 h
Procedure: as §1, §2, §3, §4

[10] = system: TJ905 (human glioma); assay: In vitro tumour cell growth inhibition (MTT), TJ905; assay type: cell-based; settings: Homo sapiens, Table 2 experiment, 96 h
Procedure: as §1, §2, §3, §4

SMILES: CCOC(=O)c1ncn2c(=O)n(C)nnc12 [Temozolomide ethyl ester, Ethyl 3,4-dihydro-3-methyl-4-oxoimidazo[5,1-d]-1,2,3,5-tetrazine-8-carboxylate]
- solubility at 5 h [1]: 2500 µg/mL (≈ 11200 µM)
- Permeation through synthetic silicone membrane ([2]; FIGS. 3-5): can not pass through the synthetic membrane easily

SMILES: COC(=O)c1ncn2c(=O)n(C)nnc12 [Temozolomide methyl ester, Methyl 3,4-dihydro-3-methyl-4-oxoimidazo[5,1-d]-1,2,3,5-tetrazine-8-carboxylate]
- solubility at 5 h [1]: 3000 µg/mL (≈ 14300 µM)
- Degradation to temozolomide acid by pig liver esterase [3]: completely degraded and released temozolomide acid
- Permeation through synthetic silicone membrane ([2]; FIGS. 3-5): can not pass through the synthetic membrane easily

SMILES: O=NN(CCCl)C(=O)NCCCl [Carmustine]
- IC50 [4]: 6.35 µg/mL (≈ 29.7 µM)
- IC50 [5]: 28.7 µg/mL (≈ 134 µM)
- IC50 [6]: 7.75 µg/mL (≈ 36.2 µM)
- IC50 [7]: 13.1 µg/mL (≈ 61.3 µM)
- IC50 [8]: 54.2 µg/mL (≈ 253 µM)
- IC50 [9]: 7.2 µg/mL (≈ 33.6 µM)
- IC50 [10]: 67.3 µg/mL (≈ 314 µM)

The next lines start with results.

- Solubility, Concentration [1]: 1.8 mg/mL (≈ 7190 µM)
SMILES: CCC(C)NC(=O)c1ncn2c(=O)n(C)nnc12 (stereo not shown) [Temozolomide sec-butyl amide]

- solubility at 5 h [1]: 300 µg/mL (≈ 976 µM)
- Permeation through synthetic silicone membrane ([2]; FIGS. 3-5, listed as octyl ester): significantly less than the hexyl ester
SMILES: CCCCCCCCOC(=O)c1ncn2c(=O)n(C)nnc12 [Temozolomide n-octyl ester, n-Octyl 3,4-dihydro-3-methyl-4-oxoimidazo[5,1-d]-1,2,3,5-tetrazine-8-carboxylate]
- Permeation through synthetic silicone membrane ([2]; FIGS. 3-5, listed as n-octyl ester): passed through the membrane far more efficiently
